Data published in patent US12274689B2, “Compound for the management of feline diabetes” (INCREVET, INC., priority 2019, dated 2025).

Columns and labels:
ZDF rats = experiment: plasma glucose in male Zucker Diabetic Fatty rats, daily oral dosing (study 338); assay type: in vivo; settings: ZDF rats; after 3 weeks; groups receiving 0.3, 1.0 and 3.0 mg kg^−1 (p<0.05, <0.01 and <0.01)
[1] = system: cats with experimental diabetes; settings: subcutaneous injection of a suspension in olive oil; Lukens et al. 1943, 1961; cited from earlier work

| Structure (SMILES) | plasma glucose levels compared to vehicle control (ZDF rats) | hyperglycemia in diabetic cats [1] |
| --- | --- | --- |
| OC[C@H]1O[C@@H](c2ccc(Cl)c(Cc3ccc(OCCOC4CC4)cc3)c2)[C@H](O)[C@@H](O)[C@@H]1O [EGT0001474, bis-proline complex of (2S,3R,4R,5S,6R)-2-(4-chloro-3-(4-(2-cyclopropoxyethoxy)benzyl)phenyl)-6-(hydroxymethyl)tetrahydro-2H-pyran-3,4,5-triol] | significantly lower |  |
| O=C(CCc1ccc(O)cc1)c1c(O)cc(O)cc1O[C@@H]1O[C@H](CO)[C@@H](O)[C@H](O)[C@H]1O [phlorizin] |  | dramatic reduction of hyperglycemia |
